Assay results published in patent publication US10722512B2, “Combinations of histone deacetylase inhibitors and either HER2 inhibitors or PI3K inhibitors” (Acetylon Pharmaceuticals, Inc., priority 2013, dated 2020).

Columns and labels:
Type in all cases: cell-based
[1] = test system: Her2+ breast cancer cells
MDA-MB-453 = test: Breast cancer cell viability, 48 hours, MTA assay; conditions: 48 hours; for IC50: Homo sapiens, MDA-MB-453, single agent, read-out: IC50; for Synergy: MDA-MB-453, combination with cmpd A, Chou-Talalay CI
Description: (§1) Cell viabilities were used to calculate “Fraction Affected” (Fa) and “Combination Index” (CI) values using the Chou-Talalay method. Any combination with a CI value<0.70 at a Fa value between 0.25 and 0.75 was defined as positive synergy.

MDA-MB-436 = test: Breast cancer cell viability, 48 hours, MTA assay; conditions: 48 hours; for IC50: Homo sapiens, MDA-MB-436, single agent, read-out: IC50
Description: as §1

Bcap-37 = test: Breast cancer cell viability, 48 hours, MTA assay; conditions: 48 hours; for Synergy: Bcap-37, combination with cmpd A, Chou-Talalay CI; for IC50: Homo sapiens, Bcap37, Bcap-37, single agent, read-out: IC50
Description: as §1

HCC1937 = test: Breast cancer cell viability, 48 hours, MTA assay; conditions: 48 hours; for Synergy: HCC1937, combination with cmpd A, Chou-Talalay CI; for IC50: Homo sapiens, HCC1937, single agent, read-out: IC50
Description: as §1

BT474 = test: Breast cancer cell viability, 48 hours, MTA assay; conditions: 48 hours; for Synergy: BT474, combination with cmpd A, Chou-Talalay CI; for IC50: Homo sapiens, BT-474, BT474, single agent, read-out: IC50
Description: as §1

SK-BR-3 = test: Breast cancer cell viability, 48 hours, MTA assay; conditions: 48 hours; for IC50: Homo sapiens, SK-BR-3, single agent, read-out: IC50; for Synergy: SK-BR-3, combination with cmpd A, Chou-Talalay CI
Description: as §1

BT-549 = test: Breast cancer cell viability, 48 hours, MTA assay; conditions: 48 hours; for Synergy: BT-549, combination with cmpd A, Chou-Talalay CI; for IC50: Homo sapiens, BT-549, single agent, read-out: IC50
Description: as §1

T-47D* = test: Breast cancer cell viability, 48 hours, MTA assay; conditions: T-47D*, 48 hours; for IC50: Homo sapiens, T47D, single agent, read-out: IC50; for Synergy: combination with cmpd A, Chou-Talalay CI
Description: as §1

ZR-75-1 = test: Breast cancer cell viability, 48 hours, MTA assay; conditions: 48 hours; for IC50: Homo sapiens, ZR-75-1, single agent, read-out: IC50; for Synergy: ZR-75-1, combination with cmpd A, Chou-Talalay CI
Description: as §1

MDA-MB-361 = test: Breast cancer cell viability, 48 hours, MTA assay; conditions: 48 hours; for IC50: Homo sapiens, MDA-MB-361, single agent, read-out: IC50
Description: as §1

MDA-MB-231 = test: Breast cancer cell viability, 48 hours, MTA assay; conditions: 48 hours; for IC50: Homo sapiens, MDA-MB-231, single agent, read-out: IC50; for Synergy: MDA-MB-231, combination with cmpd A, Chou-Talalay CI
Description: as §1

Hs578T = test: Breast cancer cell viability, 48 hours, MTA assay; conditions: Hs578T, 48 hours; for IC50: Homo sapiens, Hs-578T, single agent, read-out: IC50; for Synergy: combination with cmpd A, Chou-Talalay CI
Description: as §1

MX-1 = test: Breast cancer cell viability, 48 hours, MTA assay; conditions: 48 hours; for IC50: Homo sapiens, MX1, MX-1, single agent, read-out: IC50; for Synergy: MX-1, combination with cmpd A, Chou-Talalay CI
Description: as §1

MDA-MB-468 = test: Breast cancer cell viability, 48 hours, MTA assay; conditions: 48 hours; for IC50: Homo sapiens, MDA-MB-468, single agent, read-out: IC50; for Synergy: MDA-MB-468, combination with cmpd A, Chou-Talalay CI
Description: as §1

HCC38 = test: Breast cancer cell viability, 48 hours, MTA assay; conditions: 48 hours; for Synergy: HCC38, combination with cmpd A, Chou-Talalay CI; for IC50: Homo sapiens, HCC38, single agent, read-out: IC50
Description: as §1

MCF-7 = test: Breast cancer cell viability, 48 hours, MTA assay; conditions: 48 hours; for IC50: Homo sapiens, MCF7, MCF-7, single agent, read-out: IC50; for Synergy: MCF-7, combination with cmpd A, Chou-Talalay CI
Description: as §1

SMILES	IC50 (MDA-MB-453) [nM]	IC50 (MDA-MB-436) [nM]	Synergy (Bcap-37)	IC50 (Bcap-37) [nM]	Synergy (HCC1937)	IC50 (HCC1937) [nM]	Synergy (BT474)	IC50 (BT474) [nM]	IC50 (SK-BR-3) [nM]	Synergy (SK-BR-3)	Synergy (BT-549)	IC50 (BT-549) [nM]	IC50 (T-47D*) [nM]	Synergy (T-47D*)	IC50 (ZR-75-1) [nM]	Synergy (ZR-75-1)	IC50 (MDA-MB-361) [nM]	IC50 (MDA-MB-231) [nM]	IC50 (Hs578T) [nM]	Synergy (Hs578T)	further results
CS(=O)(=O)CCNCc1ccc(-c2ccc3ncnc(Nc4ccc(OCc5cccc(F)c5)c(Cl)c4)c3c2)o1 [Lapatinib]	130	9310	S (Any combination with a CI value<0.70 at a Fa value between 0.25 and 0.75 was defined as positive synergy)	10900	S (Any combination with a CI value<0.70 at a Fa value between 0.25 and 0.75 was defined as positive synergy)	5560	S (Any combination with a CI value<0.70 at a Fa value between 0.25 and 0.75 was defined as positive synergy)	40	60	S (Any combination with a CI value<0.70 at a Fa value between 0.25 and 0.75 was defined as positive synergy)	S (Any combination with a CI value<0.70 at a Fa value between 0.25 and 0.75 was defined as positive synergy)	6530	23300	S (Any combination with a CI value<0.70 at a Fa value between 0.25 and 0.75 was defined as positive synergy)	2690	S (Any combination with a CI value<0.70 at a Fa value between 0.25 and 0.75 was defined as positive synergy)	9310	7170	5770	S (Any combination with a CI value<0.70 at a Fa value between 0.25 and 0.75 was defined as positive synergy)	cytotoxicity of the combination with Compound A [1]: synergistic cytotoxicity; Synergy (MDA-MB-453): S (Any combination with a CI value<0.70 at a Fa value between 0.25 and 0.75 was defined as positive synergy); IC50 (MX-1): 1010 nM; Synergy (MX-1): S (Any combination with a CI value<0.70 at a Fa value between 0.25 and 0.75 was defined as positive synergy); IC50 (MDA-MB-468): 5600 nM; Synergy (MDA-MB-468): S (Any combination with a CI value<0.70 at a Fa value between 0.25 and 0.75 was defined as positive synergy); Synergy (HCC38): S (Any combination with a CI value<0.70 at a Fa value between 0.25 and 0.75 was defined as positive synergy); IC50 (HCC38): 5050 nM; IC50 (MCF-7): 5780 nM; Synergy (MCF-7): S (Any combination with a CI value<0.70 at a Fa value between 0.25 and 0.75 was defined as positive synergy)
CS(=O)(=O)N1CCN(Cc2cc3nc(-c4cccc5[nH]ncc45)nc(N4CCOCC4)c3s2)CC1 [GDC-0941]	290	3270	S (Any combination with a CI value<0.70 at a Fa value between 0.25 and 0.75 was defined as positive synergy)	2480	S (Any combination with a CI value<0.70 at a Fa value between 0.25 and 0.75 was defined as positive synergy)	2450	S (Any combination with a CI value<0.70 at a Fa value between 0.25 and 0.75 was defined as positive synergy)	90	220	S (Any combination with a CI value<0.70 at a Fa value between 0.25 and 0.75 was defined as positive synergy)	S (Any combination with a CI value<0.70 at a Fa value between 0.25 and 0.75 was defined as positive synergy)	1660	620	S (Any combination with a CI value<0.70 at a Fa value between 0.25 and 0.75 was defined as positive synergy)	210	S (Any combination with a CI value<0.70 at a Fa value between 0.25 and 0.75 was defined as positive synergy)	3270	1690	1110	S (Any combination with a CI value<0.70 at a Fa value between 0.25 and 0.75 was defined as positive synergy)	cytotoxicity of the combination with Compound A [1]: synergistic cytotoxicity; Synergy (MDA-MB-453): S (Any combination with a CI value<0.70 at a Fa value between 0.25 and 0.75 was defined as positive synergy); Synergy (MDA-MB-436; MDA-MB-436, combination with cmpd A, Chou-Talalay CI): S (Any combination with a CI value<0.70 at a Fa value between 0.25 and 0.75 was defined as positive synergy); Synergy (MDA-MB-361; MDA-MB-361, combination with cmpd A, Chou-Talalay CI): S (Any combination with a CI value<0.70 at a Fa value between 0.25 and 0.75 was defined as positive synergy); Synergy (MDA-MB-231): S (Any combination with a CI value<0.70 at a Fa value between 0.25 and 0.75 was defined as positive synergy); IC50 (MX-1): 560 nM; Synergy (MX-1): S (Any combination with a CI value<0.70 at a Fa value between 0.25 and 0.75 was defined as positive synergy); IC50 (MDA-MB-468): 2930 nM; Synergy (MDA-MB-468): S (Any combination with a CI value<0.70 at a Fa value between 0.25 and 0.75 was defined as positive synergy); Synergy (HCC38): S (Any combination with a CI value<0.70 at a Fa value between 0.25 and 0.75 was defined as positive synergy); IC50 (HCC38): 7440 nM; IC50 (MCF-7): 430 nM; Synergy (MCF-7): S (Any combination with a CI value<0.70 at a Fa value between 0.25 and 0.75 was defined as positive synergy)
COc1cccc2c1C(=O)c1c(O)c3c(c(O)c1C2=O)C[C@@](O)(C(=O)CO)C[C@@H]3O[C@H]1C[C@H](N)[C@H](O)[C@H](C)O1 [Doxorubicin]	220	170	S (Any combination with a CI value<0.70 at a Fa value between 0.25 and 0.75 was defined as positive synergy)	170	S (Any combination with a CI value<0.70 at a Fa value between 0.25 and 0.75 was defined as positive synergy)	240	S (Any combination with a CI value<0.70 at a Fa value between 0.25 and 0.75 was defined as positive synergy)	190	120	S (Any combination with a CI value<0.70 at a Fa value between 0.25 and 0.75 was defined as positive synergy)	S (Any combination with a CI value<0.70 at a Fa value between 0.25 and 0.75 was defined as positive synergy)	30	150	S (Any combination with a CI value<0.70 at a Fa value between 0.25 and 0.75 was defined as positive synergy)	130	S (Any combination with a CI value<0.70 at a Fa value between 0.25 and 0.75 was defined as positive synergy)	170	730	1560	S (Any combination with a CI value<0.70 at a Fa value between 0.25 and 0.75 was defined as positive synergy)	Synergy (MDA-MB-231): S (Any combination with a CI value<0.70 at a Fa value between 0.25 and 0.75 was defined as positive synergy); IC50 (MX-1): 240 nM; Synergy (MX-1): S (Any combination with a CI value<0.70 at a Fa value between 0.25 and 0.75 was defined as positive synergy); IC50 (MDA-MB-468): 100 nM; Synergy (MDA-MB-468): S (Any combination with a CI value<0.70 at a Fa value between 0.25 and 0.75 was defined as positive synergy); Synergy (HCC38): S (Any combination with a CI value<0.70 at a Fa value between 0.25 and 0.75 was defined as positive synergy); IC50 (HCC38): 180 nM; IC50 (MCF-7): 820 nM
